Measurements from patent publication US8129371B2, “Thienopyrimidine and pyrazolopyrimidine compounds and their use as mTOR kinase and PI3 kinase inhibitors” (Wyeth LLC, priority 2007, dated 2012).
pIC50: −log10 of the molar value.

Columns and labels:
[1] = biological target: T1, PI3K (Homo sapiens, UniProt P48736); experiment: Fluorescence polarization assay for PI3K; format: biochemical; conditions: PI3 Kinase γ; read-out: PI3 Kinase γ IC50
T1 construct: PI3 Kinase γ IC50; other: PI3 Kinase γ; other: PI3 Kinase γ isoform, fluorescence polarization
How it was run: (§1)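 Fluorescence-polarization competition readout: after 30–60 min of PIP2/ATP turnover in 1% DMSO, a stop mix with GST-GRP (70 nM) and red probe (10 nM) was added.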

[2] = biological target: T2, PI3K (Homo sapiens, UniProt P42336); experiment: Fluorescence polarization assay for PI3K; format: biochemical; conditions: PI3 Kinase α; read-out: PI3 Kinase α IC50
T2 construct: PI3 Kinase α IC50; other: PI3 Kinase α; other: PI3 Kinase α isoform, fluorescence polarization
How it was run: as §1

[3] = test system: prostate line LNCap; experiment: In vitro cell culture growth assay (MTS), LNCap; format: cell-based; conditions: Homo sapiens, LNCaP, 72 h, LNCap cells, three days after drug treatment
How it was run: (§2)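 Cells were plated and, one day later, treated with inhibitors. Three days after treatment, viable cell density was measured by MTS dye conversion, read as absorbance at 490 nm. Effects are expressed as percent of control growth versus vehicle-treated cells on the same plate.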

[4] = test system: breast line MDA468; experiment: In vitro cell culture growth assay (MTS), MDA468; format: cell-based; conditions: Homo sapiens, 72 h, MDA468 cells, three days after drug treatment
How it was run: as §2

[5] = biological target: T3, Human mTOR (FLAG-TOR) (Homo sapiens, UniProt P42345); experiment: Human mTOR kinase assay with purified enzyme, DELFIA format; format: biochemical
T3 construct: FLAG
How it was run: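 DELFIA readout: Eu-anti-P(T389)-S6K antibody (40 ng/mL, 1 h) on captured His6-S6K from the stopped reaction. Kinase step used purified FLAG-tagged human mTOR with test compound in HEPES (pH 7.4)/MnCl2/DTT buffer, 2 h at room temperature (linear 1–6 h), terminated by EDTA/EGTA.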

T1 sequence (P48736 whole entry, canonical isoform): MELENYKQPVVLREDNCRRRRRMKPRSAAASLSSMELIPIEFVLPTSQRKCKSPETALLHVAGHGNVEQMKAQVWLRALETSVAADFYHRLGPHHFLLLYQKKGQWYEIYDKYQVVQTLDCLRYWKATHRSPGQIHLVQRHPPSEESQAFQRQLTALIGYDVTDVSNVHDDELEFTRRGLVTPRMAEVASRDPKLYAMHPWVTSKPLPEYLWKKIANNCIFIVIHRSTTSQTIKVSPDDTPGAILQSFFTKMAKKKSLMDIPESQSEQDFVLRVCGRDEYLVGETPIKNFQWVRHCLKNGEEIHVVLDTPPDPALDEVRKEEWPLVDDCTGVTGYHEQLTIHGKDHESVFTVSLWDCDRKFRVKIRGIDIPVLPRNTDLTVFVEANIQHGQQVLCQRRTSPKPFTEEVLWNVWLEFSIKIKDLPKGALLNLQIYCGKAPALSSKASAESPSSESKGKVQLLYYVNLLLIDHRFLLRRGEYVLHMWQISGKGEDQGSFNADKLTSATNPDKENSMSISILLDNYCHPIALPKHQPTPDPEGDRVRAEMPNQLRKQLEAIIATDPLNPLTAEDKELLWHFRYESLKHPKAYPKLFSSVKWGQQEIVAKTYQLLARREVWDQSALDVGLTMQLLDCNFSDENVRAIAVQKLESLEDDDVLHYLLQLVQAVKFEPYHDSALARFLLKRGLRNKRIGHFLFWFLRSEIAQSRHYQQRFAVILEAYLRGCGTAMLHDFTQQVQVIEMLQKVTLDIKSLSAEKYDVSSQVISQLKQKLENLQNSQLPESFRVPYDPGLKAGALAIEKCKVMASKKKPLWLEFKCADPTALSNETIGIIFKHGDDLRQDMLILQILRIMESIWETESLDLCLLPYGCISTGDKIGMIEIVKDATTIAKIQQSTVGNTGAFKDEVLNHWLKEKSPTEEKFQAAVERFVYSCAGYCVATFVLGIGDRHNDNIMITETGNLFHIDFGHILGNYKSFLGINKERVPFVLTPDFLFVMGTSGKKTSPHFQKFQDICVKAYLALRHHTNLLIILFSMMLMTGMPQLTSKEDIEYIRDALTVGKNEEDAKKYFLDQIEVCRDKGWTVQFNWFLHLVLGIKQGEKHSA
T2 sequence (P42336 whole entry, canonical isoform): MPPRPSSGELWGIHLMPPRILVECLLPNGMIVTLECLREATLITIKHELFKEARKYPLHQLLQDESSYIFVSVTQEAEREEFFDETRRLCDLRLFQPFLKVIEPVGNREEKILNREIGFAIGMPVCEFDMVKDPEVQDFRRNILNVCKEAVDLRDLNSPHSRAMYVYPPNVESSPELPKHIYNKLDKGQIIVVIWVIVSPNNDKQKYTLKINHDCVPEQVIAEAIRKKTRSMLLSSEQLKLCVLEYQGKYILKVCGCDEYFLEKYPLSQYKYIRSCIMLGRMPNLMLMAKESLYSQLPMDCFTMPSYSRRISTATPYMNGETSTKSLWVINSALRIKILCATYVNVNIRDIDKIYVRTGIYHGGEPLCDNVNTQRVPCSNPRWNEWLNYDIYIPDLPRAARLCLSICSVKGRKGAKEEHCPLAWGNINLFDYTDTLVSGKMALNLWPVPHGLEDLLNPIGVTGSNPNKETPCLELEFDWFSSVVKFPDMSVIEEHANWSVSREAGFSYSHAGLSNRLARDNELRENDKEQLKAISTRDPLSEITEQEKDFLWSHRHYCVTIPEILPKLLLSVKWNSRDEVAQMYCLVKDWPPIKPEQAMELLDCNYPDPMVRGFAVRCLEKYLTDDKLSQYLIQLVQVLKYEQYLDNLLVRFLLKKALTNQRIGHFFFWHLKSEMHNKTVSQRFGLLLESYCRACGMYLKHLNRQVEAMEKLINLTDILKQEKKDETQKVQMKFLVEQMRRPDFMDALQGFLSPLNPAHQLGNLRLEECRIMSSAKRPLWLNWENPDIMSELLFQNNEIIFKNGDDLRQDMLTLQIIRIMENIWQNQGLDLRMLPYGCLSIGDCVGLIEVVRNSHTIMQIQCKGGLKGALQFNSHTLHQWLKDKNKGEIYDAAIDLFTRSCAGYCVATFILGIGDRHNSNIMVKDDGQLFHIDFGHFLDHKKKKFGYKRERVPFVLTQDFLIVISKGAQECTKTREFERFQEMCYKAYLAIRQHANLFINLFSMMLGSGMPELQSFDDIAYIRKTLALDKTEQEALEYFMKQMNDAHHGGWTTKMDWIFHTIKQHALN

pIC50 [1] | pIC50 [2] | pIC50 [3] | pIC50 [5] | Structure (SMILES) | pIC50 [4]
5.30 | 6.63 | 6.72 | 8.33 | CCn1ncc2c(N3CC4CCC(C3)O4)nc(-c3ccc(NC(=O)NCCNC)cc3)nc21 [Example 174, 1-{4-[1-ethyl-4-(8-oxa-3-azabicyclo[3.2.1]oct-3-yl)-1H-pyrazolo[3,4-d]pyrimidin-6-yl]phenyl}-3-[2-(methylamino)ethyl]urea] | 6.15
6.18 | 6.08 | 6.46 | 7.28 | CCn1ncc2c(N3CC4CCC(C3)O4)nc(-c3ccc(NC(=O)NCCN(C)C)cc3)nc21 [Example 175, 1-[2-(dimethylamino)ethyl]-3-{4-[1-ethyl-4-(8-oxa-3-azabicyclo[3.2.1]oct-3-yl)-1H-pyrazolo[3,4-d]pyrimidin-6-yl]phenyl}urea] | 5.90
5.02 | 6.41 | 5.26 | 8.45 | CCn1ncc2c(N3CC4CCC(C3)O4)nc(-c3ccc(NC(=O)NCCCN)cc3)nc21 [Example 176, 1-(3-aminopropyl)-3-{4-[1-ethyl-4-(8-oxa-3-azabicyclo[3.2.1]oct-3-yl)-1H-pyrazolo[3,4-d]pyrimidin-6-yl]phenyl}urea] | 4.55
< 5.00 | 5.78 | 5.92 | 7.16 | CCn1ncc2c(N3CC4CCC(C3)O4)nc(-c3ccc(NC(=O)NCCCN(C)C)cc3)nc21 [Example 177, 1-[3-(dimethylamino)propyl]-3-{4-[1-ethyl-4-(8-oxa-3-azabicyclo[3.2.1]oct-3-yl)-1H-pyrazolo[3,4-d]pyrimidin-6-yl]phenyl}urea] | 5.35
< 5.00 | 6.02 | 5.72 | 7.06 | CCn1ncc2c(N3CC4CCC(C3)O4)nc(-c3ccc(NC(=O)NCCN4CCN(C)CC4)cc3)nc21 [Example 178, 1-{4-[1-ethyl-4-(8-oxa-3-azabicyclo[3.2.1]oct-3-yl)-1H-pyrazolo[3,4-d]pyrimidin-6-yl]phenyl}-3-[2-(4-methylpiperazin-1-yl)ethyl]urea] | 5.24
5.00 | 6.32 | 5.77 | 7.18 | CCn1ncc2c(N3CC4CCC(C3)O4)nc(-c3ccc(NC(=O)NCCN4CCOCC4)cc3)nc21 [Example 179, 1-{4-[1-ethyl-4-(8-oxa-3-azabicyclo[3.2.1]oct-3-yl)-1H-pyrazolo[3,4-d]pyrimidin-6-yl]phenyl}-3-(2-morpholin-4-ylethyl)urea] | 5.30
5.87 | 7.25 | > 9.00 | 9.56 | CCn1ncc2c(N3CC4CCC(C3)O4)nc(-c3ccc(NC(=O)Nc4ccc(N5CCN(C)CC5)cc4)cc3)nc21 [Example 180, 1-{4-[1-ethyl-4-(8-oxa-3-azabicyclo[3.2.1]oct-3-yl)-1H-pyrazolo[3,4-d]pyrimidin-6-yl]phenyl}-3-[4-(4-methylpiperazin-1-yl)phenyl]urea] | > 9.00
5.44 | 6.76 | > 9.00 | 9.74 | CCn1ncc2c(N3CC4CCC(C3)O4)nc(-c3ccc(NC(=O)Nc4ccc(N5CCOCC5)cc4)cc3)nc21 [Example 181, 1-{4-[1-ethyl-4-(8-oxa-3-azabicyclo[3.2.1]oct-3-yl)-1H-pyrazolo[3,4-d]pyrimidin-6-yl]phenyl}-3-(4-morpholin-4-ylphenyl)urea] | > 9.00
5.90 | 7.40 | > 9.00 | 9.92 | CCn1ncc2c(N3CC4CCC(C3)O4)nc(-c3ccc(NC(=O)Nc4ccc(CO)cc4)cc3)nc21 [Example 182, 1-{4-[1-ethyl-4-(8-oxa-3-azabicyclo[3.2.1]oct-3-yl)-1H-pyrazolo[3,4-d]pyrimidin-6-yl]phenyl}-3-[4-(hydroxymethyl)phenyl]urea] | > 9.00
5.82 | 7.17 | > 9.00 | 9.92 | CCn1ncc2c(N3CC4CCC(C3)O4)nc(-c3ccc(NC(=O)Nc4ccc(CCO)cc4)cc3)nc21 [Example 183, 1-{4-[1-ethyl-4-(8-oxa-3-azabicyclo[3.2.1]oct-3-yl)-1H-pyrazolo[3,4-d]pyrimidin-6-yl]phenyl}-3-[4-(2-hydroxyethyl)phenyl]urea] | > 9.00
5.11 | 5.67 | 9.00 | 9.53 | CCn1ncc2c(N3CC4CCC(C3)O4)nc(-c3ccc(NC(=O)Nc4ccc(N5CCOCC5)nc4)cc3)nc21 [Example 184, 1-{4-[1-ethyl-4-(8-oxa-3-azabicyclo[3.2.1]oct-3-yl)-1H-pyrazolo[3,4-d]pyrimidin-6-yl]phenyl}-3-(6-morpholin-4-ylpyridin-3-yl)urea] | 8.10
5.64 | 6.71 | > 9.00 | 9.13 | CCn1ncc2c(N3CC4CCC(C3)O4)nc(-c3ccc(NC(=O)Nc4ccc(N5CCN(C)CC5)nc4)cc3)nc21 [Example 185, 1-{4-[1-ethyl-4-(8-oxa-3-azabicyclo[3.2.1]oct-3-yl)-1H-pyrazolo[3,4-d]pyrimidin-6-yl]phenyl}-3-[6-(4-methylpiperazin-1-yl)pyridin-3-yl]urea] | 9.00
5.75 | 6.87 | > 9.00 | 9.08 | CCn1ncc2c(N3CC4CCC(C3)O4)nc(-c3ccc(NC(=O)Nc4ccc(OCCN(C)C)cc4)cc3)nc21 [Example 186, 1-{4-[2-(dimethylamino)ethoxy]phenyl}-3-{4-[1-ethyl-4-(8-oxa-3-azabicyclo[3.2.1]oct-3-yl)-1H-pyrazolo[3,4-d]pyrimidin-6-yl]phenyl}urea] | 8.10
5.42 | 6.70 | 9.00 | 9.39 | CCn1ncc2c(N3CC4CCC(C3)O4)nc(-c3ccc(NC(=O)Nc4ccc(OC)cc4)cc3)nc21 [Example 187, 1-{4-[1-ethyl-4-(8-oxa-3-azabicyclo[3.2.1]oct-3-yl)-1H-pyrazolo[3,4-d]pyrimidin-6-yl]phenyl}-3-(4-methoxyphenyl)urea] | 7.72
5.53 | 6.33 | 8.00 | 8.96 | CCn1ncc2c(N3CC4CCC(C3)O4)nc(-c3ccc(NC(=O)Nc4ccc(Cl)cc4)cc3)nc21 [Example 188, 1-(4-chlorophenyl)-3-{4-[1-ethyl-4-(8-oxa-3-azabicyclo[3.2.1]oct-3-yl)-1H-pyrazolo[3,4-d]pyrimidin-6-yl]phenyl}urea] | 6.72
4.96 | 6.07 | 8.30 | 9.05 | CCn1ncc2c(N3CC4CCC(C3)O4)nc(-c3ccc(NC(=O)Nc4ccc(C)cc4)cc3)nc21 [Example 189, 1-{4-[1-ethyl-4-(8-oxa-3-azabicyclo[3.2.1]oct-3-yl)-1H-pyrazolo[3,4-d]pyrimidin-6-yl]phenyl}-3-(4-methylphenyl)urea] | 7.70
5.52 | 6.27 | 8.40 | 9.30 | CCn1ncc2c(N3CC4CCC(C3)O4)nc(-c3ccc(NC(=O)Nc4ccc(C#N)cc4)cc3)nc21 [Example 190, 1-(4-cyanophenyl)-3-{4-[1-ethyl-4-(8-oxa-3-azabicyclo[3.2.1]oct-3-yl)-1H-pyrazolo[3,4-d]pyrimidin-6-yl]phenyl}urea] | 7.48
< 5.00 | 5.18 | 6.68 | 8.45 | CCn1ncc2c(N3CC4CCC(C3)O4)nc(-c3ccc(NC(=O)OCC(C)O)cc3)nc21 (stereo not drawn) [Example 191, 2-hydroxypropyl {4-[1-ethyl-4-(8-oxa-3-azabicyclo[3.2.1]oct-3-yl)-1H-pyrazolo[3,4-d]pyrimidin-6-yl]phenyl}carbamate] | 6.11
< 5.00 | 5.68 | 5.99 | 7.59 | COC(=O)Nc1ccc(-c2nc(N3CC4CCC(C3)O4)c3cnn(CCO)c3n2)cc1 [Example 192, methyl {4-[1-(2-hydroxyethyl)-4-(8-oxa-3-azabicyclo[3.2.1]oct-3-yl)-1H-pyrazolo[3,4-d]pyrimidin-6-yl]phenyl}carbamate] | 5.30
< 5.00 | 6.43 | 6.19 | 8.55 | CNC(=O)Nc1ccc(-c2nc(N3CC4CCC(C3)O4)c3cnn(CCO)c3n2)cc1 [Example 193, 1-{4-[1-(2-hydroxyethyl)-4-(8-oxa-3-azabicyclo[3.2.1]oct-3-yl)-1H-pyrazolo[3,4-d]pyrimidin-6-yl]phenyl}-3-methylurea] | 6.01
< 5.00 | 5.82 | 6.55 | 8.57 | CCNC(=O)Nc1ccc(-c2nc(N3CC4CCC(C3)O4)c3cnn(CCO)c3n2)cc1 [Example 194, 1-ethyl-3-{4-[1-(2-hydroxyethyl)-4-(8-oxa-3-azabicyclo[3.2.1]oct-3-yl)-1H-pyrazolo[3,4-d]pyrimidin-6-yl]phenyl}urea] | 6.10
